One data set concerns intracellular Notch-1. In words: Immunofluorescence of intracellular Notch-1 in MDA-MB-231 breast cancer cells. The following applies: MDA-MB-231 cells; 0.01, 0.1, 1 or 10 μM. The class given is cell-based. As to the method: (§1) MDA-MB-231 breast cancer cells were treated either with vehicle (control) or with 0.01 μM, 0.1 μM, 1 μM or 10 μM final concentration of doxorubicin, taxotere or KSA-101696. Then, the cells were cytospun to glass slides by centrifugation at 800 rpm for 3 min. Slides were then air-dried overnight and 4% formaldehyde fixed for 10 min. For staining, the cell membrane was permeabilized with 0.5% triton-X (Sigma) followed by overnight incubation with primary antibodies (anti-Numb, Abcam) and (anti-intracellular Notch-1, Cell Signalling) at 1:100. Cells were washed and stained with AlexaFluor goat anti-rabbit IgG 488 (Invitrogenat) 1:400 for 30 minutes. 300 nM DAPI (Invitrogen, Carlsbad, Calif., USA) was added for 10 minutes to counterstain the nuclei. Slides were mounted and immunofluorescence was visualized using BD Pathway 855 microscope.
(§2) Numb exerts its functional role on cell fate decisions by antagonizing Notch signaling activities. The molecular mechanisms underlying this relationship appear to rely on the ubiquitination of the membrane bound Notch-1 receptor and the subsequent degradation of its NICD (Notch intracellular domain) following receptor activation.

For a further data set, the system named is Numb. Put plainly: Immunofluorescence of Numb in MDA-MB-231 breast cancer cells. The data set is classed as cell-based. The conditions noted are these: MDA-MB-231 cells; 0.01, 0.1, 1 or 10 μM. As to the method: as §1, §2
Data set [1] is described as follows: Determination of LD50 value. The conditions noted are these: male, Swiss Webster Albino, mouse, in vivo, ip. As to the method:
Swiss Webster Albino mice were housed in groups of 2 or 4 in elevated steel wire-mesh cages in a controlled room maintained at a temperature of 22±2° C., relative humidity of 50±10% and a 12 h light-dark cycle. Rodent diet chow (feed) provided by Grain Silos Flour Mills Organization, Riyadh, Saudi Arabia, and tap water for drinking were made available ad lib.
Male mice were divided into various groups (n=10 animals per group). Each group was administered a different dose of the respective compound via the intraperitoneal (i.p.) route. The dose range used was 100-5000 mg/kg.
During the observation periods there was a continuous record of any behavioral changes and clinical symptoms that caused by effects on the central and autonomic nervous systems, the respiratory and the cardiovascular systems or any other action on the gastrointestinal tract, the renal systems, eye, skin, skeletal muscles etc.
During the 72 hour observation period the number of animals that died in every group was recorded. The percentage of death calculated and converted to probits to calculate the LD50 value for each compound in mg/kg. The LD50 value reported in this study provided compounds in their liquid form in the provided concentrations.

Regarding `CC(=O)O[C@@]12CO[C@@H]1C[C@H](O)[C@@]1(C)C(=O)[C@H](O)C3=C(C)[C@@H](OC(=O)[C@H](O)[C@@H](NC(=O)OC(C)(C)C)c4ccccc4)C[C@@](O)([C@@H](OC(=O)c4ccccc4)[C@H]21)C3(C)C` [taxotere], the Notch self-renewal pathway result in the data set on intracellular Notch-1 is reported as “activated the Notch self-renewal pathway”. The “Numb expression (immunofluorescence microscopy)” value with Numb is “inhibited Numb expression”.

With `COc1cccc2c1C(=O)c1c(O)c3c(c(O)c1C2=O)C[C@@](O)(C(=O)CO)C[C@@H]3O[C@H]1C[C@H](N)[C@H](O)[C@H](C)O1` [Doxorubicin], in the data set with intracellular Notch-1, the Notch self-renewal pathway result is recorded as “activated the Notch self-renewal pathway”. Moreover, in the data set with Numb, the “Numb expression (immunofluorescence microscopy)” value is recorded as “inhibited Numb expression”. Besides, the 50% lethal dose (LD50) (in general, the dose expected to kill half of the subjects tested) at 72 h in data set [1] is 60 mg/kg.

These data come from patent US10550130B2, “Benzo-thiazolo-imidazole compounds and uses thereof” (KING SAUD UNIVERSITY, priority 2015, dated 2020).
